Some test systems named below: UACC-257 melanoma; DU-145 prostate; PC-3 prostate; SR leukemia; SNB-75 CNS; SK-MEL-5 melanoma; HS 578T breast; MDA-MB-231 breast; MOLT-4 leukemia; NCI-H23 lung.
What all share (assay): growth of human tumour cells (NCI), 48 h

The text below walks through data of PubChem BioAssay (NCI).

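Tested at 5 concentrations; 48 h exposure; 96-well plates; endpoints linearly interpolated, else capped at highest concentration. TGI denotes the concentration required for complete inhibition of growth.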

On to `CCOC(=O)CCc1cn2cc(Br)nc(OC)c2n1`, for which the TGI in the experiment with UACC-257 melanoma, in the experiment with DU-145 prostate, in the experiment on PC-3 prostate, in the experiment on SR leukemia, with SNB-75 CNS and in the experiment on SK-MEL-5 melanoma was greater than 100 µM throughout. The TGI in the experiment with HS 578T breast, in the experiment with MDA-MB-231 breast, in the experiment with MOLT-4 leukemia and in the experiment with NCI-H23 lung was greater than 100 µM in each case.

Consider `Oc1cccc2c(Br)ccnc12`, for which the TGI with UACC-257 melanoma was found to be 16.1 µM; in the experiment with DU-145 prostate, 39.5 µM; with PC-3 prostate it was 38.1 µM; in the experiment on SR leukemia, 4.31 µM; in the experiment with SNB-75 CNS, 66.2 µM; in the experiment with SK-MEL-5 melanoma it was 14.2 µM. The TGI with HS 578T breast came out at 50.5 µM; in the experiment with MDA-MB-231 breast, 16.3 µM; in the experiment on MOLT-4 leukemia, 6.91 µM; with NCI-H23 lung, 17.1 µM.

On to `S=C1C(=Nc2ccccc2)N(c2ccccc2)/C(=N\c2cccc[n+]2Cc2ccccc2)N1c1ccccc1`, for which the TGI with UACC-257 melanoma was 31.6 µM; with DU-145 prostate it was greater than 100 µM; with PC-3 prostate, 29.9 µM; in the experiment on SR leukemia it was 79.7 µM; in the experiment on SNB-75 CNS, 25.5 µM; in the experiment with SK-MEL-5 melanoma it was 26.7 µM. The TGI in the experiment with HS 578T breast is greater than 100 µM; in the experiment with MDA-MB-231 breast, 31.3 µM; with MOLT-4 leukemia it was greater than 100 µM; in the experiment on NCI-H23 lung, 35.4 µM.
